Test results as given in patent US20060069132A1, “Azolecarboxamide herbicides” (priority 2004, published 2006).
Read-outs that look alike come from different tables or passages of the source.

Columns and labels:
[1] = tested on: barnyardgrass; assay: Test B pre-/postemergence herbicide test; format: in vivo, Echinochloa crus-galli; details: Echinochloa crus-galli; for pest or weed control at 125 g/ha: 125 g ai/ha; for pest or weed control at 500 g/ha: 500 g ai/ha
Procedure, shortened: (§1)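 Formulation: non-phytotoxic solvent mix with surfactant. Timing: preemergence on seed and postemergence on 2–18 cm plants, applied concurrently. Readout after 13–15 d greenhouse: visual 0–100 control rating against controls.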

[2] = tested on: Surinam grass; assay: Test B pre-/postemergence herbicide test; format: in vivo, Urochloa decumbens; details: Urochloa decumbens; for pest or weed control at 125 g/ha: 125 g ai/ha; for pest or weed control at 500 g/ha: 500 g ai/ha
Procedure, shortened: (§2)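 Herbicidal effect was judged by eye on a 0–100 scale after plants stood 13 to 15 days in the greenhouse following pre- or postemergence treatment with surfactant-containing formulations.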

[3] = tested on: cocklebur; assay: Test B pre-/postemergence herbicide test; format: in vivo, Xanthium strumarium; details: Xanthium strumarium; for pest or weed control at 125 g/ha: 125 g ai/ha; for pest or weed control at 500 g/ha: 500 g ai/ha
Procedure, shortened: as §1

[4] = tested on: corn; assay: Test B pre-/postemergence herbicide test; format: in vivo, Zea mays; details: Zea mays
Procedure, shortened: as §2

[5] = tested on: large crabgrass; assay: Test B pre-/postemergence herbicide test; format: in vivo, Digitaria sanguinalis; details: Digitaria sanguinalis; for pest or weed control at 125 g/ha: 125 g ai/ha; for pest or weed control at 500 g/ha: 500 g ai/ha
Procedure, shortened: as §2

[6] = tested on: lambsquarters; assay: Test B pre-/postemergence herbicide test; format: in vivo, Chenopodium album; details: Chenopodium album, post-emergence, 336 h, postemergence, read-out: Lambsquarters plant response rating
Procedure, shortened: as §2

[7] = tested on: morningglory; assay: Test B pre-/postemergence herbicide test; format: in vivo, Ipomoea coccinea; details: Ipomoea, 336 h; for pest or weed control at 125 g/ha: 125 g ai/ha; for pest or weed control at 500 g/ha: 500 g ai/ha
Procedure, shortened: as §1

[8] = tested on: velvetleaf; assay: Test B pre-/postemergence herbicide test; format: in vivo, Abutilon theophrasti; details: Abutilon theophrasti, 336 h; for pest or weed control at 125 g/ha: 125 g ai/ha; for pest or weed control at 500 g/ha: 500 g ai/ha
Procedure, shortened: as §2

[9] = tested on: blackgrass; assay: Test B postemergence herbicide test; format: in vivo, Alopecurus myosuroides; details: Alopecurus myosuroides, post-emergence, 336 h, postemergence, visual rating, scale 0 (no effect) to 100 (complete control), read-out: Blackgrass plant response rating
Procedure, shortened: (§3)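 Scale 0–100: zero equals no visible effect, 100 complete control, judged by eye relative to controls. Timing: 13 to 15 days in greenhouse post-treatment. Growth stage at spraying: two leaves (paddy) or one to four leaves, 2–18 cm (postemergence).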

[10] = tested on: wheat; assay: Test B postemergence herbicide test; format: in vivo, Triticum aestivum; details: Triticum aestivum, post-emergence, 336 h, postemergence, read-out: Wheat plant response rating
Procedure, shortened: (§4)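 Read-out: visual comparison with controls, scored 0 to 100, where 100 means complete control and 0 no effect. Formulated chemicals were applied postemergence to plants 2–18 cm tall (1- to 4-leaf), or to flooded-paddy plants at the 2-leaf stage, then held 13 to 15 days under glass.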

[11] = tested on: wild oat; assay: Test B postemergence herbicide test; format: in vivo, Avena fatua; details: Avena fatua, post-emergence, 336 h, postemergence, read-out: Oat, Wild plant response rating
Procedure, shortened: as §4

[12] = tested on: rice; assay: Test B flooded paddy test; format: in vivo, Oryza sativa; details: Oryza sativa, 336 h, 1000 g ai/ha, scale 0 to 100 (0 no effect, 100 complete control), read-out: Rice plant response rating
Procedure, shortened: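 Treated at 2-leaf (paddy) or 1–4-leaf, 2–18 cm (postemergence); greenhouse 13–15 d; visual score vs control, 0 none to 100 complete control; dash = not tested.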

[13] = tested on: small flower umbrella sedge; assay: Test B flooded paddy test; format: in vivo, Cyperus difformis; details: Cyperus difformis, 336 h, 1000 g ai/ha, scale 0 to 100 (0 no effect, 100 complete control), read-out: Sedge, Umbrella plant response rating
Procedure, shortened: as §3

[14] = tested on: ducksalad; assay: Test B flooded paddy test; format: in vivo, Heteranthera limosa; details: Heteranthera limosa, 336 h, 1000 g ai/ha, scale 0 to 100 (0 no effect, 100 complete control), read-out: Ducksalad plant response rating
Procedure, shortened: as §3

[15] = tested on: barnyardgrass; assay: Test B flooded paddy test; format: in vivo, Echinochloa crus-galli; details: Echinochloa crus-galli, 336 h, 1000 g ai/ha, scale 0 to 100 (0 no effect, 100 complete control), read-out: Barnyardgrass plant response rating
Procedure, shortened: as §3

[16] = post-emergence, postemergence, visual rating, scale 0 (no effect) to 100 (complete control), read-out: Barnyardgrass plant response rating
[17] = post-emergence, postemergence, visual rating, scale 0 (no effect) to 100 (complete control), read-out: Cocklebur plant response rating
[18] = 125 g ai/ha, visual rating, scale 0 (no effect) to 100 (complete control)
[19] = 500 g ai/ha, scale 0 to 100, 0 is no effect, 100 is complete control

CCN(CC)C(=O)c1cncc(NC(=O)c2cc(C(C)(C)C)nn2CC)c1 [Compound 261, 5-[[[3-(1,1-dimethylethyl)-1-ethyl-1H-pyrazol-5-yl]carbonyl]amino]-N,N-diethyl-3-pyridinecarboxamide]
pest or weed control at 125 g/ha [1, 16]: 0% | pest or weed control at 500 g/ha [1, 16]: 0% | pest or weed control at 125 g/ha ([1]; pre-emergence, 0 = no effect, 100 = complete control, read-out: Barnyardgrass plant response rating (0 to 100 scale)): 0% | pest or weed control at 500 g/ha ([1]; pre-emergence, visual rating, 0 = no effect, 100 = complete control, read-out: Plant response rating, Barnyardgrass): 20% | pest or weed control at 125 g/ha ([2]; post-emergence, postemergence, visual rating, scale 0 (no effect) to 100 (complete control), read-out: Surinam Grass plant response rating): 0% | pest or weed control at 500 g/ha ([2]; post-emergence, postemergence, scale 0 to 100, 0 is no effect, 100 is complete control, read-out: Surinam Grass plant response rating): 20% | pest or weed control at 125 g/ha ([2]; pre-emergence, 0 = no effect, 100 = complete control, read-out: Surinam Grass plant response rating (0 to 100 scale)): 0% | pest or weed control at 500 g/ha ([2]; pre-emergence, visual rating, 0 = no effect, 100 = complete control, read-out: Plant response rating, Surinam Grass): 0% | pest or weed control at 125 g/ha [3, 17]: 0% | pest or weed control at 500 g/ha [3, 17]: 10% | pest or weed control at 125 g/ha ([3]; pre-emergence, 0 = no effect, 100 = complete control, read-out: Cocklebur plant response rating (0 to 100 scale)): 0% | pest or weed control at 500 g/ha ([3]; pre-emergence, visual rating, 0 = no effect, 100 = complete control, read-out: Plant response rating, Cocklebur): 0% | plant injury at 125 g/ha ([4]; post-emergence, postemergence, 125 g ai/ha, visual rating, scale 0 (no effect) to 100 (complete control), read-out: Corn plant response rating): 10% | plant injury at 500 g/ha ([4]; post-emergence, postemergence, 500 g ai/ha, scale 0 to 100, 0 is no effect, 100 is complete control, read-out: Corn plant response rating): 20% | Corn plant response rating (crop injury, 0 = no effect, 100 = complete kill) at 500 g/ha ([4]; pre-emergence, 500 g ai/ha, visual rating, 0 = no effect, 100 = complete control): 0% | pest or weed control at 125 g/ha ([5]; post-emergence, postemergence, visual rating, scale 0 (no effect) to 100 (complete control), read-out: Crabgrass, Large plant response rating): 0% | pest or weed control at 500 g/ha ([5]; post-emergence, postemergence, scale 0 to 100, 0 is no effect, 100 is complete control, read-out: Crabgrass, Large plant response rating): 10% | pest or weed control at 125 g/ha ([5]; pre-emergence, 0 = no effect, 100 = complete control, read-out: Crabgrass, Large plant response rating (0 to 100 scale)): 50% | pest or weed control at 500 g/ha ([5]; pre-emergence, visual rating, 0 = no effect, 100 = complete control, read-out: Plant response rating, Crabgrass, Large): 50% | pest or weed control at 125 g/ha [6, 18]: 10% | pest or weed control at 500 g/ha [6, 19]: 60% | pest or weed control at 125 g/ha ([7]; post-emergence, postemergence, visual rating, scale 0 (no effect) to 100 (complete control), read-out: Morningglory plant response rating): 0% | pest or weed control at 500 g/ha ([7]; post-emergence, postemergence, scale 0 to 100, 0 is no effect, 100 is complete control, read-out: Morningglory plant response rating): 0% | pest or weed control at 125 g/ha ([7]; pre-emergence, 0 = no effect, 100 = complete control, read-out: Morningglory plant response rating (0 to 100 scale)): 0% | pest or weed control at 500 g/ha ([7]; pre-emergence, visual rating, 0 = no effect, 100 = complete control, read-out: Plant response rating, Morningglory): 0% | pest or weed control at 125 g/ha ([8]; post-emergence, postemergence, visual rating, scale 0 (no effect) to 100 (complete control), read-out: Velvetleaf plant response rating): 0% | pest or weed control at 500 g/ha ([8]; post-emergence, postemergence, scale 0 to 100, 0 is no effect, 100 is complete control, read-out: Velvetleaf plant response rating): 0% | pest or weed control at 125 g/ha ([8]; pre-emergence, 0 = no effect, 100 = complete control, read-out: Velvetleaf plant response rating (0 to 100 scale)): 0% | pest or weed control at 500 g/ha ([8]; pre-emergence, visual rating, 0 = no effect, 100 = complete control, read-out: Plant response rating, Velvetleaf): 20% | pest or weed control at 125 g/ha ([9]; 125 g ai/ha): 0% | pest or weed control at 500 g/ha ([9]; 500 g ai/ha): 20% | plant injury at 125 g/ha [10, 18]: 0% | plant injury at 500 g/ha [10, 19]: 20% | pest or weed control at 125 g/ha [11, 18]: 0% | pest or weed control at 500 g/ha [11, 19]: 20% | plant injury at 1000 g/ha [12]: 60% | pest or weed control at 1000 g/ha [13]: 30% | pest or weed control at 1000 g/ha [14]: 80% | pest or weed control at 1000 g/ha [15]: 0%
